Series [1] in a line: Optical spectra / mass spectrometry of Mn-PDA complexes incubated with BAPTA over time. The series is classed as physicochemical. The following applies: mixture with BAPTA, 0 h vs 24 h; confirmed by mass spectrometry. The text has this: In contrast, the MnL1 mixture with BAPTA developed a strong peak for uncomplexed L1 (m/z=347.37), indicating dissociation of the MnL1 complex.

Series [2] can be described thus: MRI relaxivity of Mn-PDA contrast agents with BAPTA, with and without calcium, in buffer. The series is classed as physicochemical. Particulars: 1.1 equivalents BAPTA, equimolar Ca^2+. The protocol: To examine the potential of Mn-PDA contrast agents to function as building blocks for the sensor design of FIG. 1A, MRI measurements were performed to assess the potential of BAPTA to interact with three paramagnetic chelates (FIG. 1A, inset). Addition of 1.1 equivalents of BAPTA to two of the Mn-PDA complexes, MnL1 and MnL3, produced significant effects on the T1-weighted MRI contrast induced by these compounds in buffer. These BAPTA-dependent contrast changes were reversed by addition of equimolar Ca^2+ (FIG. 1B). This was consistent with Mn-PDA moieties competing with Ca^2+ for binding to BAPTA molecules. The changes were quantified in terms of T1 relaxivity (r1) values, which were defined as the slope of the T1 relaxation rate (1/T1=R1) vs. concentration of each paramagnetic complex.
Most MRI data were acquired on a 7 T Bruker Biospec0 system using a T1-weighted 2D gradient echo sequence (echo time, TE=5 ms, repetition time, TR=100 ms; flip angle, FA=65 degrees (°)). Longitudinal relaxivity (r1) measurements were acquired using a 2D spin echo sequence (TE=11 ms, TR=125, 200, 400, 800, 1500, 3000, and 5000 ms), with in-plane resolution of 200×200 microns squared ((μm)^2) and 2 mm slice thickness. […] Stimulus-dependent R1 changes in cells were calculated as ΔR1/R1=[R1(incubated cells)−R1(naive cells)]/R1(naive cells). […]

On to `O=C1c2ccccc2[O][Mn-]23[O]c4ccccc4C(=O)[N]2c2ccccc2[N]13` [MnL1], for which the “spectroscopic behavior in the presence of BAPTA over time (stability)” value in series [1] is listed as “sharp changes indicative of degradation”. Besides, the “Calcium-dependent changes in r1 in the presence of BAPTA” value in series [2] stood at 105%.
